Tests used:
Assay in all cases: KINOMEscan competition binding
Conditions in all cases: compound 10.0 µM
ACVR2A (human) = ACVR2A (human) (UniProt P27037)
ADCK3 (human) = ADCK3 (human) (UniProt Q8NI60)
BMPR1A (human) = BMPR1A (human) (UniProt P36894)
CAMK2B (human) = CAMK2B (human) (UniProt Q13554)
CDC42BPA (human) = CDC42BPA (human) (UniProt Q5VT25)
CDK5 (human) = CDK5 (human) (UniProt Q00535)
CHEK2 (human) = CHEK2 (human) (UniProt O96017)
CHUK (human) = CHUK (human) (UniProt O15111)
CLK4 (human) = CLK4 (human) (UniProt Q9HAZ1)
CSNK1E (human) = CSNK1E (human) (UniProt P49674)
CaMK1 (human) = CaMK1 (human) (UniProt Q14012)
DMPK (human) = DMPK (human) (UniProt Q09013)
EPHB2 (human) = EPHB2 (human) (UniProt P29323)
ERBB2 (human) = ERBB2 (human) (UniProt P04626)
FYN (human) = FYN (human) (UniProt P06241)
IKBKE (human) = IKBKE (human) (UniProt Q14164)
[1] = biological target: JAK2 JH1 catalytic (human) (UniProt O60674)
[2] = tested on: KIT (human), P10721 [V559D]
MAP2K1 (human) = MAP2K1 (human) (UniProt Q02750)
MAP2K4 (human) = MAP2K4 (human) (UniProt P45985)
MAP4K3 (human) = MAP4K3 (human) (UniProt Q8IVH8)
MARK1 (human) = MARK1 (human) (UniProt Q9P0L2)
MST4 (human) = MST4 (human) (UniProt Q9P289)
Chain of MST4 (human) (Q9P289 whole entry, looked up): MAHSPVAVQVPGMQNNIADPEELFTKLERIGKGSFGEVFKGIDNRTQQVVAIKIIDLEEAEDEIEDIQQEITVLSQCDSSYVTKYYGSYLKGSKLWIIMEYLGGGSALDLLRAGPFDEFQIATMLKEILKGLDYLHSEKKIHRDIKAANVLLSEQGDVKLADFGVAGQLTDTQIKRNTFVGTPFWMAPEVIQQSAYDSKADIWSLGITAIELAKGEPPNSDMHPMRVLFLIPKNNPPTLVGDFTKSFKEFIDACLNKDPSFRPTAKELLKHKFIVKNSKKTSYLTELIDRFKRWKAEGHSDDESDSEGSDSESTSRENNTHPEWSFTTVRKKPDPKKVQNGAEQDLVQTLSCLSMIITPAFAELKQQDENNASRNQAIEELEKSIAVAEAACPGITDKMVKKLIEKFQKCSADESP

PAK7 (human) = PAK7 (human) (UniProt Q9P286)
PDGFRB (human) = PDGFRB (human) (UniProt P09619)
PIM3 (human) = PIM3 (human) (UniProt Q86V86)
PLK1 (human) = PLK1 (human) (UniProt P53350)
PLK3 (human) = PLK3 (human) (UniProt Q9H4B4)
PRKCH (human) = PRKCH (human) (UniProt P24723)
PRKD3 (human) = PRKD3 (human) (UniProt O94806)
PTK2 (human) = PTK2 (human) (UniProt Q05397)
RIOK3 (human) = RIOK3 (human) (UniProt O14730)
RPS6KA5 KD2 (human) = RPS6KA5 KD2 (human) (UniProt O75582)
RPS6KA6 KD2 (human) = RPS6KA6 KD2 (human) (UniProt Q9UK32)
SGK110 (human) = SGK110 (human) (UniProt P0C264)
SRPK1 (human) = SRPK1 (human) (UniProt Q96SB4)
STK36 (human) = STK36 (human) (UniProt Q9NRP7)
TEK (human) = TEK (human) (UniProt Q02763)
TESK1 (human) = TESK1 (human) (UniProt Q15569)
Chain of TESK1 (human) (Q15569 whole entry, looked up): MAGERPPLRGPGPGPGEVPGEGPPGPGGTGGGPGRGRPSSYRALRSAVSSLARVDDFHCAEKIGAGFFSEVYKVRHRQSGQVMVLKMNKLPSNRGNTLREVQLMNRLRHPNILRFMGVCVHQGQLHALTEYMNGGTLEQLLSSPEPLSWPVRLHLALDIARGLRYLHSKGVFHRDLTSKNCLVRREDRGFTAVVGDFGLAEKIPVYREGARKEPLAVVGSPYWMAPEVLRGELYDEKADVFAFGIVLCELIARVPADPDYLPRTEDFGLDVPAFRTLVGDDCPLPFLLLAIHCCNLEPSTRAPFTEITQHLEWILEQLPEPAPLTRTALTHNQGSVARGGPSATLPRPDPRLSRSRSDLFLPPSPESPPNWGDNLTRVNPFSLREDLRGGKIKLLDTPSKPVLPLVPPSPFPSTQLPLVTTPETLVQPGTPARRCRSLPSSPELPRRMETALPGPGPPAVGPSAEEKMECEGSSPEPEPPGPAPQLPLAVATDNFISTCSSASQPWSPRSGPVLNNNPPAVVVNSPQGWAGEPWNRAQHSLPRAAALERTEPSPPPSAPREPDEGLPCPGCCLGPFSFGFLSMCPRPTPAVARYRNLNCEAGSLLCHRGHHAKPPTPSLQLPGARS

TLK1 (human) = TLK1 (human) (UniProt Q9UKI8)
Chain of TLK1 (human) (Q9UKI8 whole entry, looked up): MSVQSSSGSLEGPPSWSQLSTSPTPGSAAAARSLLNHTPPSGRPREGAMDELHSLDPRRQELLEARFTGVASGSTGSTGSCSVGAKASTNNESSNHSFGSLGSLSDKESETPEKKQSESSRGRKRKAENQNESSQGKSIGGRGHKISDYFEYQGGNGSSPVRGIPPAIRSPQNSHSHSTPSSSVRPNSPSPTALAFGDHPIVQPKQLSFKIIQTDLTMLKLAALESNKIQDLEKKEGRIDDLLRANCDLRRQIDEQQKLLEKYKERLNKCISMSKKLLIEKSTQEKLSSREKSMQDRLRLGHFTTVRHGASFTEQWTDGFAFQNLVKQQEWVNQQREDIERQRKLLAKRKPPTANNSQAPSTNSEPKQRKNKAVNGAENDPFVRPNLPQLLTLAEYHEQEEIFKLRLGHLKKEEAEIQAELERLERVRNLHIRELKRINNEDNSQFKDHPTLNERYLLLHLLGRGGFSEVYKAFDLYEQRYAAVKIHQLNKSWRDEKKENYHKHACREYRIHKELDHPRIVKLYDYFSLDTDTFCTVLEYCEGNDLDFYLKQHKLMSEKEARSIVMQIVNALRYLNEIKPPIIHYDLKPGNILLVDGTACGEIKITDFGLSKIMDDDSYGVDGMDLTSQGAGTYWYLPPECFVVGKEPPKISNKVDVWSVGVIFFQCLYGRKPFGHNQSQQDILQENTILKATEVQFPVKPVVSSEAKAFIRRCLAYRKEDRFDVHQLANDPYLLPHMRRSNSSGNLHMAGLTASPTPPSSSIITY

Chain of CHEK2 (human) (O96017 whole entry, looked up): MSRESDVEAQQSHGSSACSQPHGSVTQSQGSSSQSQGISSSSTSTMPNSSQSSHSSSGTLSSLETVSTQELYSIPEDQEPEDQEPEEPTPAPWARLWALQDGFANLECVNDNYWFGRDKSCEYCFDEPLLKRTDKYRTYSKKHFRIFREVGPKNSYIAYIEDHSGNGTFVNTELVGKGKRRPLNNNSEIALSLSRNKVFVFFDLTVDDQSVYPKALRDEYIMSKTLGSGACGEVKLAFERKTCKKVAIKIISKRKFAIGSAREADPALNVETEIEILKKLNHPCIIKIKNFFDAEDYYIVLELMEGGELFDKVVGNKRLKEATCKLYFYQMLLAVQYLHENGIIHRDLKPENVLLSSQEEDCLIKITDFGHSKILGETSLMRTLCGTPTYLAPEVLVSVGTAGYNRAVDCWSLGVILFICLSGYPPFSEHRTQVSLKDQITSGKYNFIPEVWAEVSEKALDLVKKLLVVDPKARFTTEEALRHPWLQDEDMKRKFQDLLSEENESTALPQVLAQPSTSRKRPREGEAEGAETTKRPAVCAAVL
Chain of CAMK2B (human) (Q13554 whole entry, looked up): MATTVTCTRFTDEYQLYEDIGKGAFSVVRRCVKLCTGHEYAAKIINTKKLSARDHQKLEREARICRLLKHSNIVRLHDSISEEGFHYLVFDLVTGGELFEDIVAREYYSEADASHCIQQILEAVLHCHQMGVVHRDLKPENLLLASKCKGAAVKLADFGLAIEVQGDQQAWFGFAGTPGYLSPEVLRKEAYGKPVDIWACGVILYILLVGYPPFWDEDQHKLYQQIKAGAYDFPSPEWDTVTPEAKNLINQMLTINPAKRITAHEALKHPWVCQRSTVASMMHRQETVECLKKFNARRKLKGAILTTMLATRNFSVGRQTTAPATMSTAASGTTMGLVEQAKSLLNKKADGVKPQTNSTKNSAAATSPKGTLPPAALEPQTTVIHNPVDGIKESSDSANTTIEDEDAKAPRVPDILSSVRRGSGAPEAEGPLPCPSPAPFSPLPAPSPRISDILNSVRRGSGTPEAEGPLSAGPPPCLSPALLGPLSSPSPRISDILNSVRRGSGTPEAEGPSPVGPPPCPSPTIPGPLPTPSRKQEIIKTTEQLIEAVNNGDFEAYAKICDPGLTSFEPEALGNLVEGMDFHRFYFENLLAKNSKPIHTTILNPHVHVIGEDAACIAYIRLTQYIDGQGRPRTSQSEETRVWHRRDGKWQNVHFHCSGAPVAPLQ
Chain of CDC42BPA (human) (Q5VT25 whole entry, looked up): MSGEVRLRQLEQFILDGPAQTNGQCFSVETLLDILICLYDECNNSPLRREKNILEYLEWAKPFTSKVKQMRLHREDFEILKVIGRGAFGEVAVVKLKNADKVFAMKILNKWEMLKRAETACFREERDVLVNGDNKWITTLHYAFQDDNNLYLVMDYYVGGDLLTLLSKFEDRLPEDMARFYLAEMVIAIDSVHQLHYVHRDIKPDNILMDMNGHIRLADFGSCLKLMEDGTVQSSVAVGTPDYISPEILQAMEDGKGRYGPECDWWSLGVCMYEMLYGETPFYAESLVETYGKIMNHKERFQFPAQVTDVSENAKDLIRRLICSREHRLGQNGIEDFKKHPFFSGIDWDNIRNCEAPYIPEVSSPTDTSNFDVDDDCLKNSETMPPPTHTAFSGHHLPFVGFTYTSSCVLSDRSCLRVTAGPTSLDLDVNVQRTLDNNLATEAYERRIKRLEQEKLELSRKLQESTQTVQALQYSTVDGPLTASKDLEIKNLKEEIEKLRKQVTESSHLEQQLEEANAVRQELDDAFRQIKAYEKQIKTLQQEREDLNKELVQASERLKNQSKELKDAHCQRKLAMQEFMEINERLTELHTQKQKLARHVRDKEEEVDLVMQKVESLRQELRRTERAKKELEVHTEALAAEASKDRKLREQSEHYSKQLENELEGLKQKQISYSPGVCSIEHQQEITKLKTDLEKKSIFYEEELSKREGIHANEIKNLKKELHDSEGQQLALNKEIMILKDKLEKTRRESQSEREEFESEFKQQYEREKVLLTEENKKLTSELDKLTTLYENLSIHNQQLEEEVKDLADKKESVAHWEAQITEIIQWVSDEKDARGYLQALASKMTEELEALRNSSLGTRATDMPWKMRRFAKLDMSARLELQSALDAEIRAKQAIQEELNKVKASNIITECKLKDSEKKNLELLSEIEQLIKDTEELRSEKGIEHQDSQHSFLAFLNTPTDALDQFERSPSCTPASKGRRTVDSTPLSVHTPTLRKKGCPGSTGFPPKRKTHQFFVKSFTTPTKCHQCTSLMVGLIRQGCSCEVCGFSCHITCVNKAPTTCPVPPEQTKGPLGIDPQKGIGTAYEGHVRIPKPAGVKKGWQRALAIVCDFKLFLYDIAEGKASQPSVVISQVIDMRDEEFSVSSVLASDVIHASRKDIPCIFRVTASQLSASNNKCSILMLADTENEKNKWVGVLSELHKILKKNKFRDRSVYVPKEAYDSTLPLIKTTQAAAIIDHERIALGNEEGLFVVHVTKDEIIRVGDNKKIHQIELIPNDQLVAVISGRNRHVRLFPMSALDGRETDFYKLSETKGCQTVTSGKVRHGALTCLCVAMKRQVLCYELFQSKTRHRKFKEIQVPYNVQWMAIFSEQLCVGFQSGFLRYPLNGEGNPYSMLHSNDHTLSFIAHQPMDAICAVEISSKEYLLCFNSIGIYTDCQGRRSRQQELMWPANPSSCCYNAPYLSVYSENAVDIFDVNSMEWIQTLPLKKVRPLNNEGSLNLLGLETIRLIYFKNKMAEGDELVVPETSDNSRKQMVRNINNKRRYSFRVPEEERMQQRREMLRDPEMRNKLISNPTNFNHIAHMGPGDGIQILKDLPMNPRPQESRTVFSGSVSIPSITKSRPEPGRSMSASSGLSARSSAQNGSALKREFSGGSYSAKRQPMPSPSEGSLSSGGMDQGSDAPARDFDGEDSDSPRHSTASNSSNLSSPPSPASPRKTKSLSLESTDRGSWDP
Chain of CDK5 (human) (Q00535 whole entry, looked up): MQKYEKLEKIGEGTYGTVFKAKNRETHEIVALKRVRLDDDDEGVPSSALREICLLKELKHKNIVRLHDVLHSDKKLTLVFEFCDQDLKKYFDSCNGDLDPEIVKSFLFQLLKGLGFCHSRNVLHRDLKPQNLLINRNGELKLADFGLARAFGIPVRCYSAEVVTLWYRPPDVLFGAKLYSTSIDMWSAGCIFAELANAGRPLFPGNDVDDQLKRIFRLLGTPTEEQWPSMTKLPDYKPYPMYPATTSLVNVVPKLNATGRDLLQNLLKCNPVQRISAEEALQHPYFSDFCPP

Work on `CCC(=O)N1CCN(c2ccc(-n3c(=O)ccc4cnc5ccc(-c6cnc7ccccc7c6)cc5c43)cc2C(F)(F)F)CC1` yielded a kinase still bound, per cent of control (ACVR2A (human)) of 47%, a kinase still bound, per cent of control (ADCK3 (human)) of 17% and a kinase still bound, per cent of control (BMPR1A (human)) of 100%. The kinase still bound, per cent of control (CAMK2B (human)) was 100%, the kinase still bound, per cent of control (CDC42BPA (human)) was 0.65% and the kinase still bound, per cent of control (CDK5 (human)) was 100%. The kinase still bound, per cent of control (CHEK2 (human)) was 100%, the kinase still bound, per cent of control (CHUK (human)) was 41% and the kinase still bound, per cent of control (CLK4 (human)) was 49%. For the same molecule, the kinase still bound, per cent of control (CSNK1E (human)) was 59%, the kinase still bound, per cent of control (CaMK1 (human)) was 50% and the kinase still bound, per cent of control (DMPK (human)) was 77%. For the same molecule, the kinase still bound, per cent of control (EPHB2 (human)) was 100%, the kinase still bound, per cent of control (ERBB2 (human)) was 91% and the kinase still bound, per cent of control (FYN (human)) was 49%. It also gave a kinase still bound, per cent of control (IKBKE (human)) of 87%, a kinase still bound, per cent of control [1] of 65% and a kinase still bound, per cent of control [2] of 50%. For the same molecule, the kinase still bound, per cent of control (MAP2K1 (human)) was 100%, the kinase still bound, per cent of control (MAP2K4 (human)) was 30% and the kinase still bound, per cent of control (MAP4K3 (human)) was 1.9%. The kinase still bound, per cent of control (MARK1 (human)) was 100%, the kinase still bound, per cent of control (MST4 (human)) was 89% and the kinase still bound, per cent of control (PAK7 (human)) was 87%. The kinase still bound, per cent of control (PDGFRB (human)) was 24%, the kinase still bound, per cent of control (PIM3 (human)) was 96% and the kinase still bound, per cent of control (PLK1 (human)) was 85%. For the same molecule, the kinase still bound, per cent of control (PLK3 (human)) was 87%, the kinase still bound, per cent of control (PRKCH (human)) was 92% and the kinase still bound, per cent of control (PRKD3 (human)) was 100%. It also gave a kinase still bound, per cent of control (PTK2 (human)) of 14%, a kinase still bound, per cent of control (RIOK3 (human)) of 90% and a kinase still bound, per cent of control (RPS6KA5 KD2 (human)) of 100%. It also gave a kinase still bound, per cent of control (RPS6KA6 KD2 (human)) of 86%, a kinase still bound, per cent of control (SGK110 (human)) of 94% and a kinase still bound, per cent of control (SRPK1 (human)) of 100%. The kinase still bound, per cent of control (STK36 (human)) was 17%, the kinase still bound, per cent of control (TEK (human)) was 19% and the kinase still bound, per cent of control (TESK1 (human)) was 58%. The kinase still bound, per cent of control (TLK1 (human)) was 100%.

With `OCCCNc1cc(-c2ccnc(Nc3cccc(Cl)c3)n2)ccn1` the kinase still bound, per cent of control (ACVR2A (human)) was 100%, the kinase still bound, per cent of control (ADCK3 (human)) was 100% and the kinase still bound, per cent of control (BMPR1A (human)) was 100%. It also gave a kinase still bound, per cent of control (CAMK2B (human)) of 100%, a kinase still bound, per cent of control (CDC42BPA (human)) of 100% and a kinase still bound, per cent of control (CDK5 (human)) of 100%. It also gave a kinase still bound, per cent of control (CHEK2 (human)) of 100%, a kinase still bound, per cent of control (CHUK (human)) of 100% and a kinase still bound, per cent of control (CLK4 (human)) of 14%. For the same molecule, the kinase still bound, per cent of control (CSNK1E (human)) was 100%, the kinase still bound, per cent of control (CaMK1 (human)) was 100% and the kinase still bound, per cent of control (DMPK (human)) was 100%. For the same molecule, the kinase still bound, per cent of control (EPHB2 (human)) was 100%, the kinase still bound, per cent of control (ERBB2 (human)) was 100% and the kinase still bound, per cent of control (FYN (human)) was 100%. The kinase still bound, per cent of control (IKBKE (human)) was 100%, the kinase still bound, per cent of control [1] was 100% and the kinase still bound, per cent of control [2] was 100%. For the same molecule, the kinase still bound, per cent of control (MAP2K1 (human)) was 100%, the kinase still bound, per cent of control (MAP2K4 (human)) was 100% and the kinase still bound, per cent of control (MAP4K3 (human)) was 100%. It also gave a kinase still bound, per cent of control (MARK1 (human)) of 100%, a kinase still bound, per cent of control (MST4 (human)) of 100% and a kinase still bound, per cent of control (PAK7 (human)) of 100%. The kinase still bound, per cent of control (PDGFRB (human)) was 100%, the kinase still bound, per cent of control (PIM3 (human)) was 100% and the kinase still bound, per cent of control (PLK1 (human)) was 100%. It also gave a kinase still bound, per cent of control (PLK3 (human)) of 100%, a kinase still bound, per cent of control (PRKCH (human)) of 100% and a kinase still bound, per cent of control (PRKD3 (human)) of 100%. The kinase still bound, per cent of control (PTK2 (human)) was 100%, the kinase still bound, per cent of control (RIOK3 (human)) was 100% and the kinase still bound, per cent of control (RPS6KA5 KD2 (human)) was 100%. It also gave a kinase still bound, per cent of control (RPS6KA6 KD2 (human)) of 100%, a kinase still bound, per cent of control (SGK110 (human)) of 100% and a kinase still bound, per cent of control (SRPK1 (human)) of 100%. For the same molecule, the kinase still bound, per cent of control (STK36 (human)) was 100%, the kinase still bound, per cent of control (TEK (human)) was 100% and the kinase still bound, per cent of control (TESK1 (human)) was 100%. The kinase still bound, per cent of control (TLK1 (human)) was 100%.

`O=C(NC1CC1)c1cccc(-c2ccc3c(NC(=O)C4CC4)n[nH]c3c2)c1` was tested, and the kinase still bound, per cent of control (ACVR2A (human)) was 92%, the kinase still bound, per cent of control (ADCK3 (human)) was 78% and the kinase still bound, per cent of control (BMPR1A (human)) was 76%. For the same molecule, the kinase still bound, per cent of control (CAMK2B (human)) was 84%, the kinase still bound, per cent of control (CDC42BPA (human)) was 87% and the kinase still bound, per cent of control (CDK5 (human)) was 60%. The kinase still bound, per cent of control (CHEK2 (human)) was 100%, the kinase still bound, per cent of control (CHUK (human)) was 76% and the kinase still bound, per cent of control (CLK4 (human)) was 100%. The kinase still bound, per cent of control (CSNK1E (human)) was 80%, the kinase still bound, per cent of control (CaMK1 (human)) was 84% and the kinase still bound, per cent of control (DMPK (human)) was 100%. It also gave a kinase still bound, per cent of control (EPHB2 (human)) of 98%, a kinase still bound, per cent of control (ERBB2 (human)) of 100% and a kinase still bound, per cent of control (FYN (human)) of 79%. It also gave a kinase still bound, per cent of control (IKBKE (human)) of 100%, a kinase still bound, per cent of control [1] of 18% and a kinase still bound, per cent of control [2] of 4.8%. The kinase still bound, per cent of control (MAP2K1 (human)) was 100%, the kinase still bound, per cent of control (MAP2K4 (human)) was 66% and the kinase still bound, per cent of control (MAP4K3 (human)) was 60%. It also gave a kinase still bound, per cent of control (MARK1 (human)) of 96%, a kinase still bound, per cent of control (MST4 (human)) of 94% and a kinase still bound, per cent of control (PAK7 (human)) of 67%. The kinase still bound, per cent of control (PDGFRB (human)) was 24%, the kinase still bound, per cent of control (PIM3 (human)) was 70% and the kinase still bound, per cent of control (PLK1 (human)) was 78%. The kinase still bound, per cent of control (PLK3 (human)) was 100%, the kinase still bound, per cent of control (PRKCH (human)) was 100% and the kinase still bound, per cent of control (PRKD3 (human)) was 100%. It also gave a kinase still bound, per cent of control (PTK2 (human)) of 90%, a kinase still bound, per cent of control (RIOK3 (human)) of 6.8% and a kinase still bound, per cent of control (RPS6KA5 KD2 (human)) of 100%. It also gave a kinase still bound, per cent of control (RPS6KA6 KD2 (human)) of 60%, a kinase still bound, per cent of control (SGK110 (human)) of 100% and a kinase still bound, per cent of control (SRPK1 (human)) of 43%. The kinase still bound, per cent of control (STK36 (human)) was 88%, the kinase still bound, per cent of control (TEK (human)) was 54% and the kinase still bound, per cent of control (TESK1 (human)) was 100%. For the same molecule, the kinase still bound, per cent of control (TLK1 (human)) was 51%.

— the kinase profiling compilation of Christmann-Franck et al. (2016)
